From US12472247B2, “Immune adjuvant comprising hepatitis B virus-derived polypeptide” (priority 2020, dated 2025)
Entries after “also recorded” stand apart in the source; their conditions may differ.

Tests used:
dendritic cells = experiment: migration of Poly6-treated dendritic cells to lymph nodes after footpad injection; format: in vivo, mouse; details: for ability of activated dendritic cells to migrate to the lymph nodes: 0.1 μM of Poly6, 0.1 μg/ml of LPS, vs DCs without any treatment
Description: Dendritic cells activated by treatment with Poly6 peptides for 24 hours were fluorescently labeled (CFSE) and injected into C57BL/6 mice by footpad injection, and after 3 days, the inguinal lymph nodes of the mice were extracted to confirm numbers of labeled dendritic cells.

[1] = tested on: dendritic cells differentiated from mouse bone marrow cells; experiment: inflammatory cytokines secreted by dendritic cells (ELISA); format: cell-based; details: Poly6 0.1, 0.5, 1 μM, 24 hours
Description: (§1) The femur and tibia of C57BL/6 mice were isolated, and bone marrow cells therein were isolated. The isolated bone marrow cells were cultured in IMDM medium (supplemented with IL-4 and GM-CSF) to induce differentiation of dendritic cells. After culturing for 6 days, dendritic cells having 80% or more of CD11c markers were used in the experiment (FIG. 3).
When dendritic cells were treated with Poly6 peptides at concentrations of 0.1 μM, 0.5 μM, and 1 μM for 24 hours, inflammatory cytokines TNF-α, IL-6, and IL-12p40 secreted by dendritic cells were confirmed by ELISA.

[2] = tested on: peripheral blood mononuclear cells (PBMC); experiment: IFN-γ-expressing T cells in PBMC treated with Poly6; format: cell-based; details: human PBMC, IL-2 three days, Poly6 at various concentrations
[3] = tested on: dendritic cells differentiated from mouse bone marrow cells; experiment: maturation markers of dendritic cells by FACS; format: cell-based; details: Poly6 0.1, 0.5, 1 μM, 24 hours
Description: as §1
Dendritic cells differentiated from mouse bone marrow cells were treated with Poly6 peptides at each concentration of 0.1 μM, 0.5 μM, and 1 μM and cultured for 24 hours, and then expression of representative maturation markers CD80, CD86, and MHC I, and a migration marker CCR7 of dendritic cells were confirmed by fluorescence activated cell sorting (FACS).

HBV = experiment: anti-HBV effect in HBV-carrier mouse models (hydrodynamic injection); format: in vivo, hepatitis B virus

Substance	ability of activated dendritic cells to migrate to the lymph nodes (dendritic cells)	anti-HIV-1 effects (HIV-1)	amounts of TNF-α, IL-6, and IL-12p40 secreted by dendritic cells [1]	numbers of dendritic cells found in the lymph nodes (dendritic cells; DCs treated with 0.1 μM Poly6, footpad injection, 3 days, vs untreated DCs)	IFN-γ-expressing T cells [2]	expression level of the maturation markers of dendritic cells (CD80, CD86, MHC I, CCR7) [3]	anti-HBV effects (HBV)
lipopolysaccharide [LPS, reference compound]	have an ability to migrate to the lymph nodes on their own						
GRLVFQ (poly6 peptide)	have an ability to migrate to the lymph nodes on their own	showed anti-HIV-1 effects	amounts of TNF-α, IL-6, and IL-12p40 secreted by dendritic cells increased	increased statistically significantly	significantly increased IFN-γ-expressing T cells compared to a group treated with PBS; also recorded: concentration-dependent trend was also observed	increased as the concentration of treated Poly6 increased	anti-HBV effects in HBV-carrier mouse models were also observed
